One may read the IC50 as the concentration at which inhibition is half-maximal. A lower IC50 goes with greater potency.

We go through nine molecules from US9663523B2, “BET protein-inhibiting 5-aryltriazoleazepines” (BAYER PHARMA AKTIENGESELLSCHAFT, priority 2012, dated 2017).

One assay relates to B16F10 cells. In words: Cell proliferation (alamarBlue), B16F10. The note with it: Mus musculus, B16-F10; melanoma cell line, 96 hours incubation. Format: cell-based. How it is done: (§1) The ability of the compounds according to the invention to inhibit the proliferation of various cell lines was determined.
(§2) Cell viability was determined by means of the alamarBlue® reagent (Invitrogen). The cells were sown at different densities (MOLM-13, LAPC-4, MOLP-8 and MDA-MB-231: 4000 cells/well; B16F10: 400 cells/well) in 100 μl of growth medium on 96-well microtitre plates. After overnight incubation at 37° C., the fluorescence values (CI values) were determined. The plates were then treated with various substance dilutions and incubated at 37° C. for 96 hours (MOLM-13, MDA-MB-231 and B16F10 cells), 120 hours (MOLP-8 cells) or 168 hours (LAPC-4 cells). Subsequently, the fluorescence values were determined (CO values). For the data analysis, the CI values were subtracted from the CO values and the results were compared between cells which had been treated with various dilutions of the substance or only with buffer solution.
(§3) The compounds according to the invention were tested in the cell lines in Table 2, which represent the indications specified by way of example:
(§4) The indications corresponding to the different cell lines can be found in Table 2.

Another assay deals with LAPC-4 cells. Kind of assay: Cell proliferation (alamarBlue), LAPC-4. The settings on record: Homo sapiens, LAPC4; prostate carcinoma (androgen receptor-positive) cell line, 168 hours incubation. Format: cell-based. Here is the method: as §1
as §2, with “values).” for “values). For the data analysis, the CI values were subtracted from the CO values and the results were compared between cells which had been treated with various dilutions of the substance or only with buffer solution.”
as §3, §4

A further assay has as its system MDA-MB-231 cells. Kind of assay: Cell proliferation (alamarBlue), MDA-MB-231. Format: cell-based. The settings on record: Homo sapiens, mammary carcinoma cell line, 96 hours incubation. How it is done:
as §1, §2, §3, §4
For orientation: Resazurin is reduced to fluorescent resorufin, in cell work by metabolically active cells.

The target of assay [1] is BRD4(1) (amino acids 44-168) (Homo sapiens (Human), UniProt O60885). In words: BRD4 binding strength, TR-FRET (HTRF) assay of BRD4(1) / acetylated histone H4 peptide interaction. The settings on record: inhibition of BRD4(1)/Ac-H4 peptide interaction. From the text:
To assess the BRD4 binding strength of the compounds according to the invention, the ability thereof to inhibit the interaction between BRD4 and acetylated histone H4 in a dose-dependent manner was quantified. For this purpose, a time-resolved fluorescence resonance energy transfer (TR-FRET) assay was used, which measures the binding between N-terminally His6-tagged BRD4(1) (amino acids 44-168) and a synthetic acetylated histone H4 (Ac-H4) peptide with sequence […]-biotin. The recombinant BRD4 protein produced in-house according to Filippakopoulos et al., Cell, 2012, 149:214-231 was expressed in E. coli and purified by means of (Ni-NTA) affinity and (Sephadex G-75) size exclusion chromatography. The Ac-H4 peptide can be purchased, for example, from Biosyntan (Berlin, Germany). […] For this purpose, 100-fold concentrated solutions in DMSO were prepared by serial dilutions (1:3.4) of a 2 mM stock solution into a clear, 384-well microtitre plate (Greiner Bio-One, Frickenhausen, Germany). From this, 50 nl were transferred into a black test plate (Greiner Bio-One, Frickenhausen, Germany). […] This was followed by a 10-minute incubation step at 22° C. for the pre-equilibration of putative complexes between BRD4 and the substances. Subsequently, 3 μl of a solution of 1.67 times the concentration (in assay buffer) consisting of Ac-H4 peptide (83.5 nM) and TR-FRET detection reagents [16.7 nM anti-6His-XL665 and 3.34 nM streptavidin cryptate (both from Cisbio Bioassays, Codolet, France), and 668 mM potassium fluoride (KF)] were added. The mixture was then incubated in the dark at 22° C. for one hour and then at 4° C. overnight. The formation of BRD4/Ac-H4 complexes was determined by the measurement of the resonance energy transfer from the streptavidin-Eu cryptate to the anti-6His-XL665 antibody present in the reaction. […] The ratio of the emissions at 665 nm and at 622 nm was taken as an indicator of the amount of BRD4/Ac-H4 complexes formed.
For orientation: TR-FRET usually uses a lanthanide donor and a delayed reading to cut background.

Another assay concerns MOLM-13 cells. Kind of assay: Cell proliferation (alamarBlue), MOLM-13. Format: cell-based. The settings on record: Homo sapiens, acute myeloid leukaemia cell line, 96 hours incubation. How it is done:
as §1, §2, §3, §4

In the case of `Cc1nnc2n1-c1ccccc1C(c1ccc(Cl)cc1)=CC2CC(=O)N1C2CCC1CC(=O)C2` (stereo not drawn) [Example 22], the IC50 in the assay on B16F10 cells came to 840 nM; in the assay on LAPC-4 cells it was 210 nM; in the assay with MDA-MB-231 cells, 2900 nM; in assay [1] it was 340 nM; with MOLM-13 cells, 1730 nM.
As for `Cc1nnc2n1-c1ccccc1C(c1ccc(Cl)cc1)=CC2CC(=O)N1CC2CCC(C1)O2` (stereo not drawn) [Example 32, 2-[6-(4-chlorophenyl)-1-methyl-4H-[1,2,4]triazolo[4,3-a][1]benzazepin-4-yl]-1-(8-oxa-3-azabicyclo[3.2.1]oct-3-yl)ethanone], the IC50 worked out at 800 nM with B16F10 cells; 250 nM with LAPC-4 cells; 2040 nM in the assay on MDA-MB-231 cells; 390 nM in assay [1]; 1810 nM in the assay on MOLM-13 cells.
Taken in the same sequence, the figures for `CCNC(=O)CC1C=C(c2ccc(Cl)cc2)c2ccccc2-n2c(C)nnc21` (stereo not drawn) [Example 12, 2-[6-(4-chlorophenyl)-1-methyl-4H-[1,2,4]triazolo[4,3-a][1]benzazepin-4-yl]-N-ethylacetamide] were 230 nM, 80 nM, 480 nM, 130 nM and 270 nM.
`Cc1nnc2n1-c1ccccc1C(c1ccc(Cl)cc1)=CC2CC(=O)N1CCOCC1` (stereo not drawn) [Example 14, 2-[6-(4-chlorophenyl)-1-methyl-4H-[1,2,4]triazolo[4,3-a][1]-benzazepin-4-yl]-1-(morpholin-4-yl)ethanone]: the IC50 amounted to 410 nM in the assay on B16F10 cells; 210 nM in the assay on LAPC-4 cells; 1010 nM in the assay on MDA-MB-231 cells; 310 nM in assay [1]; 460 nM with MOLM-13 cells.
Turning to `Cc1nnc2n1-c1ccccc1C(c1ccc(Cl)cc1)=CC2CC(=O)N1CC(F)C1` (stereo in doubt) [Example 17, (−)-2-[(4R)-6-(4-chlorophenyl)-1-methyl-4H-[1,2,4]triazolo[4,3-a][1]benzazepin-4-yl]-1-(3-fluoroazetidin-1-yl)ethanone], the 50% inhibitory concentration (IC50) was 280 nM in the assay on B16F10 cells; 140 nM in the assay with LAPC-4 cells; 570 nM with MDA-MB-231 cells; 90 nM in assay [1]; 340 nM in the assay on MOLM-13 cells.
Regarding `Cc1nnc2n1-c1ccccc1C(c1ccc(Cl)cc1)=CC2CC(=O)N1CC(F)C1` (stereo not drawn) [Example 16, 2-[6-(4-chlorophenyl)-1-methyl-4H-[1,2,4]triazolo[4,3-a][1]benzazepin-4-yl]-1-(3-fluoroazetidin-1-yl)ethanone], the IC50 in the assay on B16F10 cells is 460 nM; with LAPC-4 cells, 260 nM; in the assay with MDA-MB-231 cells it was 1040 nM; in assay [1] it was 220 nM; in the assay with MOLM-13 cells, 530 nM.
As to `Cc1nnc2n1-c1ccccc1C(c1ccc(Cl)cc1)=CC2CC(=O)Nc1ccc2c(c1)CC(=O)N2` (stereo in doubt) [Example 21, (−)-2-[(4R)-6-(4-chlorophenyl)-1-methyl-4H-[1,2,4]triazolo[4,3-a][1]benzazepin-4-yl]-N-(2-oxo-2,3-dihydro-1H-indol-5-yl)acetamide], the IC50 in the assay on B16F10 cells is 190 nM; in the assay with LAPC-4 cells, 80 nM; in the assay with MDA-MB-231 cells it was 480 nM; in assay [1], 80 nM; in the assay with MOLM-13 cells, 170 nM.
`Cc1nnc2n1-c1ccccc1C(c1ccc(Cl)cc1)=CC2Cc1nc(C(C)C)no1` (stereo in doubt) [Example 36, (−)-(4R)-6-(4-chlorophenyl)-1-methyl-4-{[3-(propan-2-yl)-1,2,4-oxadiazol-5-yl]methyl}-4H-[1,2,4]triazolo[4,3-a][1]benzazepine]: the IC50 is 240 nM in the assay on B16F10 cells; 160 nM in the assay on LAPC-4 cells; 410 nM with MDA-MB-231 cells; 90 nM in assay [1]; 400 nM in the assay on MOLM-13 cells.
Regarding `CCNC(=O)CC1C=C(c2ccc(Cl)cc2)c2ccccc2-n2c(C)nnc21` (stereo in doubt) [Example 13, (−)-2-[(4R)-6-(4-chlorophenyl)-1-methyl-4H-[1,2,4]triazolo[4,3-a][1]benzazepin-4-yl]-N-ethylacetamide], the IC50 in the assay on B16F10 cells worked out at 150 nM; in the assay with LAPC-4 cells, 60 nM; in the assay with MDA-MB-231 cells it was 320 nM; in assay [1] it was 30 nM; with MOLM-13 cells, 310 nM.
